From ChEMBL document CHEMBL1146737, “Discovery of a potent and selective alpha v beta 3 integrin antagonist with strong inhibitory activity against neointima formation in rat balloon injury model” (Bioorg Med Chem Lett, 2004)
Several values for one entry are separate records, joined by “and”; a condition that tells them apart may be missing. Identical values can stand only once.

Tests used:
[1] = molecular target: Integrin alpha-V/beta-3 and alpha-IIb/beta 3 (Homo sapiens) (UniProt P05106+P06756+P08514); experiment: Ratio of inhibitory activity against human alpha V beta-3 integrin to that of alpha IIb beta-3 integrin; format: protein assay
[2] = molecular target: Integrin alpha-IIb/beta-3 (Homo sapiens, UniProt P05106+P08514); experiment: Inhibitory activity was determined against human alpha IIb beta3 integrin; format: protein-complex assay
Integrin alpha-IIb/beta-3, sequence (P05106 27-788 limits assumed): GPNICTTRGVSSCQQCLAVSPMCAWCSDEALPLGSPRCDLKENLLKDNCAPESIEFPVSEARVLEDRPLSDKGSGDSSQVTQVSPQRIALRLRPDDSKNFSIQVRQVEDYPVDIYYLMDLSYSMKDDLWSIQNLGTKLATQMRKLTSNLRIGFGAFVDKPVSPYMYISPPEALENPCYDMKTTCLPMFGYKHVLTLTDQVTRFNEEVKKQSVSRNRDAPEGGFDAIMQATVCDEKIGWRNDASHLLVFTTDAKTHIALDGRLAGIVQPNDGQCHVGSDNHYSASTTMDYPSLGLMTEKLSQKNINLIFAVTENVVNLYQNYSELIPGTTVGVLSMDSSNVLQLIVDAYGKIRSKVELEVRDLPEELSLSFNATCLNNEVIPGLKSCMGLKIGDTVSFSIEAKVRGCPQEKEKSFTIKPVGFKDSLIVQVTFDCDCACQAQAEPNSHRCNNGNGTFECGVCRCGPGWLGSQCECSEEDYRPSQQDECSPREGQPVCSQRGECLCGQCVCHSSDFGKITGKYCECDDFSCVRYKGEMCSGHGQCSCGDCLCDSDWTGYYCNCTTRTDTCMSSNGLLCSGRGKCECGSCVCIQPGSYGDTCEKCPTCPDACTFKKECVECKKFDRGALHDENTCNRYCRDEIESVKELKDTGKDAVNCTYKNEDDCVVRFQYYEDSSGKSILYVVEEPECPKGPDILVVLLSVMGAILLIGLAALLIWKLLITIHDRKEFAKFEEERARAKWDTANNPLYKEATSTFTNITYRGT
Integrin alpha-IIb/beta-3, sequence (P08514 32-887 limits assumed): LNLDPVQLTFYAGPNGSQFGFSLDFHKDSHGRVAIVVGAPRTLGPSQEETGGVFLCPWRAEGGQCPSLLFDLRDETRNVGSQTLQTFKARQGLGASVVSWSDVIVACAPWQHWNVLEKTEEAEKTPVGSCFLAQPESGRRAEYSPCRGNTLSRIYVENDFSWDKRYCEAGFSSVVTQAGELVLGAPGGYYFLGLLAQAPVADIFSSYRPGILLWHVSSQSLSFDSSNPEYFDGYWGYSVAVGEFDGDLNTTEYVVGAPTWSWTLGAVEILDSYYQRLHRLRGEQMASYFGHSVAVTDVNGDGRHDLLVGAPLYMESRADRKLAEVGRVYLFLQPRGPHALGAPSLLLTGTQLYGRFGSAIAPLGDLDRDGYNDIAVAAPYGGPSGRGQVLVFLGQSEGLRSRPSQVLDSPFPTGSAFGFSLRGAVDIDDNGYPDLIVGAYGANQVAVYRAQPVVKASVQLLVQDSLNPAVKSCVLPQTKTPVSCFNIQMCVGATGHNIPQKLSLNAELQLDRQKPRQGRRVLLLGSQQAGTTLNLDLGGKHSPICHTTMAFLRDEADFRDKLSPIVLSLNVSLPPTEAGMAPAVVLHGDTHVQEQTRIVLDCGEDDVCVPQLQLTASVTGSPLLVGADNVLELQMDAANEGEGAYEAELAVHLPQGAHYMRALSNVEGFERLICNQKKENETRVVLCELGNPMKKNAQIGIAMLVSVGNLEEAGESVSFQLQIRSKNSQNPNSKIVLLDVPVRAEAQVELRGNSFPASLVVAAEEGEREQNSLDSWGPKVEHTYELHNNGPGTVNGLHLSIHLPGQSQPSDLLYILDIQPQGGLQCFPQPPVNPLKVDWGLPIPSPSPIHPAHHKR
Integrin alpha-IIb/beta-3, sequence (P08514 891-1039 limits assumed): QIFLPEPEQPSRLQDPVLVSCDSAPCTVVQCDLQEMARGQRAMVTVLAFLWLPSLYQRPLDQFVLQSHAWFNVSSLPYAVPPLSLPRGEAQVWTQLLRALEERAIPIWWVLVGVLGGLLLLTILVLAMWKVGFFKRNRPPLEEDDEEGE

Homo sapiens = species: Homo sapiens; experiment: Inhibition of human vascular smooth muscle proliferation was determined; format: functional; details: Muscle tissue
Rattus norvegicus [3] = experiment: Antistenoic effect infused subcutaneously at a constant rate of 1.3 umol/rat/day; format: functional
Rattus norvegicus [4] = experiment: Antistenoic effect infused subcutaneously at a constant rate of 0.14 umol/rat/day; format: functional
Rattus norvegicus [5] = experiment: Antistenoic effect infused subcutaneously at a constant rate of 0.43 umol/rat/day; format: functional
Rattus norvegicus [6] = experiment: Ratio of Intima area to media area was tested by subcutaneous infusion of compound at a constant rate of 1.3 umol/rat/day; format: functional
Integrin alpha-V/beta-3 = Integrin alpha-V/beta-3 (Homo sapiens, UniProt P05106+P06756); experiment: Inhibitory activity was determined against human vitronectin receptor (alpha V beta 3); format: protein-complex assay
Integrin alpha-V/beta-3, sequence (P05106 27-788 limits assumed): as the sequence (P05106 27-788 limits assumed) above
Integrin alpha-V/beta-3, sequence (P06756 31-889 limits assumed): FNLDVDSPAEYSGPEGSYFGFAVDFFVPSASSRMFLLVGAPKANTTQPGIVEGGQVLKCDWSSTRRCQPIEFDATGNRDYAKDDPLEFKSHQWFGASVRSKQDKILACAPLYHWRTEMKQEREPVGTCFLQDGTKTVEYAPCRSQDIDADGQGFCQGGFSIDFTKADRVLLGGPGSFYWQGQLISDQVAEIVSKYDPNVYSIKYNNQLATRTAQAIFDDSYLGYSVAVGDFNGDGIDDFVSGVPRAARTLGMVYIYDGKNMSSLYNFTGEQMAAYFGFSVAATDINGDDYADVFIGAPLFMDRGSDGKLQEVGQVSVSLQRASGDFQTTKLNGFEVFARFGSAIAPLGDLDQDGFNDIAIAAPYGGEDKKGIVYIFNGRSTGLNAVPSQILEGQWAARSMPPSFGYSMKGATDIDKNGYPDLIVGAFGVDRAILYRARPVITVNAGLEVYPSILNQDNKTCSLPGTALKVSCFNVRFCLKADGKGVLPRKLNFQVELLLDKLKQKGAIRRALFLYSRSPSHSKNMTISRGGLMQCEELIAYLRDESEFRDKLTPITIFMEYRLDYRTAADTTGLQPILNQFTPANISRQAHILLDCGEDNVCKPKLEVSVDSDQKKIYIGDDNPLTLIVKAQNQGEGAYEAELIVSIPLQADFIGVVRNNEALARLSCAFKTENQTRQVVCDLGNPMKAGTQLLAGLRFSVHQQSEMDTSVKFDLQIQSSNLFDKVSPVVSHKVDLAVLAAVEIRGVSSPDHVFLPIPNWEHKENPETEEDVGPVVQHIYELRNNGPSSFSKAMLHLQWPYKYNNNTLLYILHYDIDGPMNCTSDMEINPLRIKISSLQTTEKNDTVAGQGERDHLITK
Integrin alpha-V/beta-3, sequence (P06756 891-1048 limits assumed): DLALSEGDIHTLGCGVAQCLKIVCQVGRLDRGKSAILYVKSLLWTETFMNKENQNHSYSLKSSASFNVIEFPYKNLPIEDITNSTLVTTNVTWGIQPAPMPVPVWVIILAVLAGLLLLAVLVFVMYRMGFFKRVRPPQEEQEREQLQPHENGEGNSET

Row | Ratio [1] | IC50 [2] | IC50 (Integrin alpha-V/beta-3) | SMILES | IC50 (Homo sapiens) | Inhibition (Rattus norvegicus [3]) | Intima area (Rattus norvegicus [3]) | Inhibition (Rattus norvegicus [4]) | Inhibition (Rattus norvegicus [5]) | intima/media ratio (Rattus norvegicus [6])
1 | > 3100 | > 1000 nM |  | CC(C)COC(=O)N[C@@H](CCC(=O)N1CCN(c2cccc(NC3=NCCCN3)c2)CC1)C(=O)O | 910 nM |  |  |  |  | 
2 | > 18000 | > 1000 nM |  | CC(C)COC(=O)N[C@@H](CCC(=O)N1CCN(c2cccc(NC3=NCC(F)CN3)c2)CC1)C(=O)O (stereo partly specified) | 180 nM | 54% and 53% | 81 10e3 um2 and 162 10e3 um2 | 21% | 38% | 0.5
3 | 63 | 88 nM | 1.4 nM | O=C(O)[C@H](CCC(=O)N1CCN(c2cccc(NC3=NCCCN3)c2)CC1)NS(=O)(=O)c1ccccc1 | > 10000 nM |  |  |  |  | 
4 | > 33000 | > 1000 nM |  | CC(C)COC(=O)N[C@@H](CCC(=O)N1CCN(c2cccc(NC3=NCC(O)CN3)c2)CC1)C(=O)O (stereo partly specified) | 2000 nM |  |  |  |  | 
5 | 140 |  |  | Cc1cc(C)c(S(=O)(=O)N[C@@H](CCC(=O)N2CCN(c3cccc(NC4=NCCCN4)c3)CC2)C(=O)O)c(C)c1 | > 10000 nM |  |  |  |  | 
6 | 11000 | 660 nM | 0.058 nM | O=C(N[C@@H](CCC(=O)N1CCN(c2cccc(NC3=NCCCN3)c2)CC1)C(=O)O)OCc1ccccc1 | 1100 nM |  |  |  |  | 
7 | > 280 | > 1000 nM |  | CCNC(=O)N[C@@H](CCC(=O)N1CCN(c2cccc(NC3=NCCCN3)c2)CC1)C(=O)O | > 10000 nM |  |  |  |  | 
8 | > 710 | > 1000 nM |  | O=C(NCc1ccccc1)N[C@@H](CCC(=O)N1CCN(c2cccc(NC3=NCCCN3)c2)CC1)C(=O)O | > 10000 nM |  |  |  |  | 
9 | > 150 | > 1000 nM |  | O=C(Cc1ccccc1)N[C@@H](CCC(=O)N1CCN(c2cccc(NC3=NCCCN3)c2)CC1)C(=O)O | > 10000 nM |  |  |  |  | 
10 | > 2600 | > 1000 nM |  | CC(C)COC(=O)N[C@@H](CCC(=O)N1CCN(c2cccc(NC3=NCC(C)(C)CN3)c2)CC1)C(=O)O | 3400 nM |  |  |  |  | 
11 | > 1700 | > 1000 nM |  | CCOC(=O)N[C@@H](CCC(=O)N1CCN(c2cccc(NC3=NCCCN3)c2)CC1)C(=O)O | 2100 nM |  |  |  |  | 
12 | 2300 |  |  | O=C(N[C@@H](CCC(=O)N1CCN(c2cccc(NC3=NCC(O)CN3)c2)CC1)C(=O)O)OCc1ccccc1 (stereo partly specified) | 3500 nM |  |  |  |  | 
13 | > 18000 | > 1000 nM |  | O=C(N[C@@H](CCC(=O)N1CCN(c2cccc(NC3=NCCCCN3)c2)CC1)C(=O)O)OCc1ccccc1 | 1700 nM |  |  |  |  | 
14 | 4500 |  |  | O=C(N[C@@H](CCC(=O)N1CCN(c2cccc(NC3=NCCN3)c2)CC1)C(=O)O)OCc1ccccc1 | 3000 nM |  |  |  |  | 
15 | 8600 |  |  | O=C(N[C@@H](CCC(=O)N1CCN(c2cccc(NC3=NCC(F)CN3)c2)CC1)C(=O)O)OCc1ccccc1 (stereo partly specified) | 260 nM | 38% and 34% | 113 10e3 um2 and 149 10e3 um2 |  |  | 0.76
